Data on eight molecules can be found in US20190175744A1, “INSULIN-INCRETIN CONJUGATES” (Merck Sharp & Dohme Corp., priority 2016, published 2019).

The target of one assay is T1, human GCGR (Homo sapiens, UniProt P47871).
T1 construct: expressed in transfected cells; grown with Blasticidin and Hygromycin
Kind of assay: cAMP activity assay, cells expressing human GCGR.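 As to all read-outs here: cAMP production read by luminescence after one hour of peptide exposure at room temperature, EC50 from logistic curve fit, native glucagon and GLP-1 as control peptides.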 Type of assay: cell-based. The note with it: for GCGR/GLP1R ratio: Table 5, ratio of hGCGR EC50 to hGLP1R EC50.

Another assay addresses human GLP1R (Homo sapiens, UniProt P43220). Kind of assay: cAMP activity assay, cells expressing human GLP1R. Type of assay: cell-based.
Where [1] appears, read: Table 5, incretin peptides, cAMP, read-out: hGLP1R EC50.

Where two headings read alike, the source gives them in different places.

Sequence of human GLP1R (P43220 24-463): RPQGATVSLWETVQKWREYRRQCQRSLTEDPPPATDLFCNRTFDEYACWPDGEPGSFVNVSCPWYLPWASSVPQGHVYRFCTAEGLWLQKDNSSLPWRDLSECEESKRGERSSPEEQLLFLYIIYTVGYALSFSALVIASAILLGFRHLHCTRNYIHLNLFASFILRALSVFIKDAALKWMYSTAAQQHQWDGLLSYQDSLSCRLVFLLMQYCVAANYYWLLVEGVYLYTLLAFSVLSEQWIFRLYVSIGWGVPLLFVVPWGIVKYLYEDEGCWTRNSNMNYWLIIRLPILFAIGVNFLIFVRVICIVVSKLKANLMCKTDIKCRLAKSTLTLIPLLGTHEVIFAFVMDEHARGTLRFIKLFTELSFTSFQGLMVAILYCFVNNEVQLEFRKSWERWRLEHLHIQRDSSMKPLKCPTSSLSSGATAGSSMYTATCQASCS
T1 sequence (P47871 26-477): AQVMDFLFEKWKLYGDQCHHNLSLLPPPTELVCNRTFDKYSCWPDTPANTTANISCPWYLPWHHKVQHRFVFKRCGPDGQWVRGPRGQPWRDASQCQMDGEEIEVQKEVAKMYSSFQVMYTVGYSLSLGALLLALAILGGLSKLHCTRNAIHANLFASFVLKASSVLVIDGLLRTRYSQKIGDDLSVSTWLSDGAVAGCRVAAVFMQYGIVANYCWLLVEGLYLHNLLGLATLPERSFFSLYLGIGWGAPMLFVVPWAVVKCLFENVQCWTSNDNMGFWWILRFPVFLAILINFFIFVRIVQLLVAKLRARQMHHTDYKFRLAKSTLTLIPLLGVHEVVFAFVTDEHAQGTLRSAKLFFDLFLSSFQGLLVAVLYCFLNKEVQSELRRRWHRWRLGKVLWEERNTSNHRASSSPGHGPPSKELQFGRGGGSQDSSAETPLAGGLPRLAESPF
Experimental for human GCGR: (§1) Activity of the incretin peptides or the conjugates at the Glucagon receptor (GCGR) and GLP-1 receptor (GLP1R) may be measured in a cAMP activity assay as follows.
(§2) Peptides are dissolved in 100% DMSO and serially diluted to generate 10 point titrations. The peptide solutions are then transferred into 384-well assay plates (150 nL/well). Assay ready frozen cells expressing human GLP1R or human GCGR are suspended in growth media consisting of DMEM medium (GIBCO), 10% FBS (GIBCO), 1×NEAA(GIBCO), 1×P/S (GIBCO), 10 μg/mL Blasticidin (GIBCO) and 200 μg/mL Hygromycin (GIBCO). […] The cell suspensions (15 μL) are then added to the assay plates containing the peptide solutions (30,000 cells/well for human GCGR; 10,000 cells/well for human GLP1R). The cells are incubated for one hour at room temperature in the dark.
(§3) Production of cAMP may be determined using HitHunterr cAMPXS kits (DiscoverX) following the manufacturer's protocol. The plates are incubated for overnight at room temperature in the dark. Luminescence may be measured using an EnVision Multilabel plate reader (Perkin Elmer). Native GLP-1 and Glucagon (Bachem) may be used as control peptides. EC50 values may be calculated using uses a 4 parameter logistic fit based on the Levenberg-Marquardt algorithm.
Experimental for human GLP1R: as §1, §2, §3

On to `CCCCCCCCCCCCCCCC(=O)N[C@@H](CCC(=O)N[C@@H](CCC(=O)NCCCC[C@H](NC(=O)[C@H](CC(=O)O)NC(=O)[C@H](CO)NC(=O)[C@@H](NC(=O)[C@H](Cc1ccccc1)NC(=O)[C@@H](NC(=O)CNC(=O)[C@H](CCC(N)=O)NC(=O)[C@@H](CO)NC(=O)[C@@H](N)Cc1c[nH]cn1)[C@@H](C)O)[C@@H](C)O)C(=O)N[C@@H](CO)C(=O)N[C@@H](CCCCN)C(=O)N[C@@H](Cc1ccc(O)cc1)C(=O)N[C@@H](CC(C)C)C(=O)N[C@@H](CC(=O)O)C(=O)N[C@@H](CCC(=O)O)C(=O)N[C@@H](CCCNC(=N)N)C(=O)N[C@@H](C)C(=O)N[C@@H](C)C(=O)N[C@@H](CCCCNC(=O)COCCOCCNC(=O)COCCOCCNC(=O)CCCCN=[N+]=[N-])C(=O)N[C@@H](CC(=O)O)C(=O)N[C@@H](Cc1ccccc1)C(=O)N[C@H](C(=O)N[C@@H](CCC(N)=O)C(=O)N[C@@H](Cc1c[nH]c2ccccc12)C(=O)N[C@@H](CC(C)C)C(=O)N[C@@H](CC(C)C)C(=O)N[C@@H](CC(=O)O)C(=O)N[C@H](C(N)=O)[C@@H](C)O)C(C)C)C(=O)O)C(=O)O` [PEP17], for which, on human GCGR, the EC50 amounted to 0.06 nM and the GCGR/GLP1R ratio came out at 1.2. Moreover, the EC50 on human GLP1R (setting [1]) came to 0.05 nM.
For `CC(C)C[C@H](NC(=O)[C@H](Cc1c[nH]c2ccccc12)NC(=O)[C@H](CCC(N)=O)NC(=O)[C@@H](NC(=O)[C@H](Cc1ccccc1)NC(=O)[C@H](CC(=O)O)NC(=O)[C@H](CCC(N)=O)NC(=O)[C@H](C)NC(=O)[C@H](C)NC(=O)[C@H](CCCNC(=N)N)NC(=O)C(C)(C)NC(=O)[C@H](CC(=O)O)NC(=O)[C@H](CC(C)C)NC(=O)[C@H](Cc1ccc(O)cc1)NC(=O)[C@H](CCCCN)NC(=O)[C@H](CO)NC(=O)[C@H](Cc1ccc(O)cc1)NC(=O)[C@H](CC(=O)O)NC(=O)[C@H](CO)NC(=O)[C@@H](NC(=O)[C@H](Cc1ccccc1)NC(=O)[C@@H](NC(=O)CNC(=O)[C@H](CCC(N)=O)NC(=O)C(C)(C)NC(=O)[C@@H](N)Cc1c[nH]cn1)[C@@H](C)O)[C@@H](C)O)C(C)C)C(=O)N[C@@H](CC(C)C)C(=O)N[C@@H](CC(=O)O)C(=O)N[C@H](C(=O)N[C@@H](CCCCN)C(=O)N[C@@H](CCCCN=[N+]=[N-])C(N)=O)[C@@H](C)O` [PEP18], the EC50 on human GCGR (Table 5, incretin peptides, cAMP, read-out: hGCGR_EC50) worked out at 0.21 nM; on human GLP1R (setting [1]) it was 0.03 nM. Moreover, at human GCGR, the GCGR/GLP1R ratio was 6.7.
`CCCCCCCCCCCCCCCC(=O)N[C@@H](CCC(=O)N[C@@H](CCC(=O)NCCCC[C@H](NC(=O)[C@H](CC(=O)O)NC(=O)[C@H](CO)NC(=O)[C@@H](NC(=O)[C@H](Cc1ccccc1)NC(=O)[C@@H](NC(=O)CNC(=O)[C@H](CCC(N)=O)NC(=O)C(C)(C)NC(=O)[C@@H](N)Cc1c[nH]cn1)[C@@H](C)O)[C@@H](C)O)C(=O)N[C@@H](CO)C(=O)N[C@@H](CCCCN)C(=O)N[C@@H](Cc1ccc(O)cc1)C(=O)N[C@@H](CC(C)C)C(=O)N[C@@H](CC(=O)O)C(=O)NC(C)(C)C(=O)N[C@@H](CCCNC(=N)N)C(=O)N[C@@H](C)C(=O)N[C@@H](C)C(=O)N[C@@H](CCC(N)=O)C(=O)N[C@@H](CC(=O)O)C(=O)N[C@@H](Cc1ccccc1)C(=O)N[C@H](C(=O)N[C@@H](CCC(N)=O)C(=O)N[C@@H](Cc1c[nH]c2ccccc12)C(=O)N[C@@H](CC(C)C)C(=O)N[C@@H](CC(C)C)C(=O)N[C@@H](CC(=O)O)C(=O)N[C@H](C(=O)N[C@@H](CCCCN)C(=O)N[C@@H](CCCCN=[N+]=[N-])C(N)=O)[C@@H](C)O)C(C)C)C(=O)O)C(=O)O` [PEP19]: the GCGR/GLP1R ratio on human GCGR was found to be 1.4. For the same molecule, on human GLP1R, the EC50 is 0.34 nM.
As for `CCCCCCCCCCCCCCCC(=O)N[C@@H](CCC(=O)N[C@@H](CCC(=O)NCCCC[C@H](NC(=O)[C@H](CC(=O)O)NC(=O)[C@H](CO)NC(=O)[C@@H](NC(=O)[C@H](Cc1ccccc1)NC(=O)[C@@H](NC(=O)CNC(=O)[C@H](CCC(N)=O)NC(=O)C(C)(C)NC(=O)[C@@H](N)Cc1c[nH]cn1)[C@@H](C)O)[C@@H](C)O)C(=O)N[C@@H](CO)C(=O)N[C@@H](CCCCN)C(=O)N[C@@H](Cc1ccc(O)cc1)C(=O)N[C@@H](CC(C)C)C(=O)N[C@@H](CC(=O)O)C(=O)NC(C)(C)C(=O)N[C@@H](CCCNC(=N)N)C(=O)N[C@@H](C)C(=O)N[C@@H](C)C(=O)N[C@@H](CCC(N)=O)C(=O)N[C@@H](CC(=O)O)C(=O)N[C@@H](Cc1ccccc1)C(=O)N[C@H](C(=O)N[C@@H](CCC(N)=O)C(=O)N[C@@H](Cc1c[nH]c2ccccc12)C(=O)N[C@@H](CC(C)C)C(=O)N[C@@H](CC(C)C)C(=O)N[C@@H](CC(=O)O)C(=O)N[C@H](C(=O)N[C@@H](CCCCN)C(=O)N[C@@H](CCCCNC(=O)COCCOCCNC(=O)CCCCN=[N+]=[N-])C(N)=O)[C@@H](C)O)C(C)C)C(=O)O)C(=O)O` [PEP20], on human GCGR, the EC50 turned out to be 0.1 nM and the GCGR/GLP1R ratio is recorded as 2.0. Moreover, the EC50 on human GLP1R turned out to be 0.05 nM.
Consider `CC(C)C[C@H](NC(=O)[C@H](Cc1ccc(O)cc1)NC(=O)[C@H](CCCCN)NC(=O)[C@H](CO)NC(=O)[C@H](Cc1ccc(O)cc1)NC(=O)[C@H](CC(=O)O)NC(=O)[C@H](CO)NC(=O)[C@@H](NC(=O)[C@H](Cc1ccccc1)NC(=O)[C@@H](NC(=O)CNC(=O)[C@H](CCC(N)=O)NC(=O)[C@@H](CO)NC(=O)[C@@H](N)Cc1c[nH]cn1)[C@@H](C)O)[C@@H](C)O)C(=O)N[C@@H](CC(=O)O)C(=O)N[C@@H](CCC(=O)O)C(=O)N[C@@H](CCCNC(=N)N)C(=O)N[C@@H](C)C(=O)N[C@@H](C)C(=O)N[C@@H](CCCCNC(=O)COCCOCCNC(=O)COCCOCCNC(=O)CC[C@H](NC(=O)CCCCCCCCCCCCCCCN=[N+]=[N-])C(=O)O)C(=O)N[C@@H](CC(=O)O)C(=O)N[C@@H](Cc1ccccc1)C(=O)N[C@H](C(=O)N[C@@H](CCC(N)=O)C(=O)N[C@@H](Cc1c[nH]c2ccccc12)C(=O)N[C@@H](CC(C)C)C(=O)N[C@@H](CC(C)C)C(=O)N[C@@H](CC(=O)O)C(=O)N[C@H](C(N)=O)[C@@H](C)O)C(C)C` [PEP26], for which the EC50 at human GCGR and on human GLP1R was 0.12 nM in each case. The GCGR/GLP1R ratio at human GCGR came to 1.0.
Take `CC(C)C[C@H](NC(=O)[C@H](Cc1ccc(O)cc1)NC(=O)[C@H](CCCCN)NC(=O)[C@H](CO)NC(=O)[C@H](Cc1ccc(O)cc1)NC(=O)[C@H](CC(=O)O)NC(=O)[C@H](CO)NC(=O)[C@@H](NC(=O)[C@H](Cc1ccccc1)NC(=O)[C@@H](NC(=O)CNC(=O)[C@H](CCC(N)=O)NC(=O)[C@@H](CO)NC(=O)[C@@H](N)Cc1c[nH]cn1)[C@@H](C)O)[C@@H](C)O)C(=O)N[C@@H](CC(=O)O)C(=O)N[C@@H](CCC(=O)O)C(=O)N[C@@H](CCCNC(=N)N)C(=O)N[C@@H](C)C(=O)N[C@@H](C)C(=O)N[C@@H](CCC(N)=O)C(=O)N[C@@H](CCCCNC(=O)COCCOCCNC(=O)COCCOCCNC(=O)CC[C@H](NC(=O)CCCCCCCCCCCCCCCN=[N+]=[N-])C(=O)O)C(=O)N[C@@H](Cc1ccccc1)C(=O)N[C@H](C(=O)N[C@@H](CCC(N)=O)C(=O)N[C@@H](Cc1c[nH]c2ccccc12)C(=O)N[C@@H](CC(C)C)C(=O)N[C@@H](CC(C)C)C(=O)N[C@@H](CC(=O)O)C(=O)N[C@H](C(N)=O)[C@@H](C)O)C(C)C` [PEP27]: on human GCGR, the EC50 was found to be 0.39 nM and the GCGR/GLP1R ratio is recorded as 6.5. The molecule further displayed an EC50 at human GLP1R of 0.06 nM.
For `CC(C)C[C@H](NC(=O)[C@H](Cc1c[nH]c2ccccc12)NC(=O)[C@H](CCC(N)=O)NC(=O)[C@@H](NC(=O)[C@H](Cc1ccccc1)NC(=O)[C@H](CC(=O)O)NC(=O)[C@H](CCC(N)=O)NC(=O)[C@H](C)NC(=O)[C@H](C)NC(=O)[C@H](CCCNC(=N)N)NC(=O)C(C)(C)NC(=O)[C@H](CC(=O)O)NC(=O)[C@H](CC(C)C)NC(=O)[C@H](Cc1ccc(O)cc1)NC(=O)[C@H](CCCCN)NC(=O)[C@H](CO)NC(=O)[C@H](Cc1ccc(O)cc1)NC(=O)[C@H](CC(=O)O)NC(=O)[C@H](CO)NC(=O)[C@@H](NC(=O)[C@H](Cc1ccccc1)NC(=O)[C@@H](NC(=O)CNC(=O)[C@H](CCC(N)=O)NC(=O)C(C)(C)NC(=O)[C@@H](N)Cc1c[nH]cn1)[C@@H](C)O)[C@@H](C)O)C(C)C)C(=O)N[C@@H](CC(C)C)C(=O)N[C@@H](CC(=O)O)C(=O)N[C@H](C(=O)N[C@@H](CCCCN)C(=O)N[C@@H](CCCCNC(=O)COCCOCCNC(=O)COCCOCCNC(=O)CC[C@H](NC(=O)CCCCCCCCCCCCCCCN=[N+]=[N-])C(=O)O)C(N)=O)[C@@H](C)O` [PEP28], in that order: 0.17 nM, 1.1 and 0.16 nM.
For the molecule `CC(C)C[C@H](NC(=O)[C@H](Cc1ccc(O)cc1)NC(=O)[C@H](CCCCN)NC(=O)[C@H](CO)NC(=O)[C@H](Cc1ccc(O)cc1)NC(=O)[C@H](CC(=O)O)NC(=O)[C@H](CO)NC(=O)[C@@H](NC(=O)[C@H](Cc1ccccc1)NC(=O)[C@@H](NC(=O)CNC(=O)[C@H](CCC(N)=O)NC(=O)C(C)(C)NC(=O)[C@@H](N)Cc1c[nH]cn1)[C@@H](C)O)[C@@H](C)O)C(=O)N[C@@H](CC(=O)O)C(=O)N[C@@H](C)C(=O)N[C@@H](CCCNC(=N)N)C(=O)N[C@@H](C)C(=O)N[C@@H](C)C(=O)N[C@@H](CCCCNC(=O)COCCOCCNC(=O)COCCOCCNC(=O)CC[C@H](NC(=O)CCCCCCCCCCCCCCCCC(=O)O)C(=O)O)C(=O)N[C@@H](CC(=O)O)C(=O)N[C@@H](Cc1ccccc1)C(=O)N[C@H](C(=O)N[C@@H](CCCCN=[N+]=[N-])C(=O)N[C@@H](Cc1c[nH]c2ccccc12)C(=O)N[C@@H](CC(C)C)C(=O)N[C@@H](CCS(C)(=O)=O)C(=O)N[C@@H](CC(=O)O)C(=O)N[C@H](C(N)=O)[C@@H](C)O)C(C)C` [PEP30], the GCGR/GLP1R ratio on human GCGR worked out at 4.5. In addition, on human GLP1R (setting [1]), the EC50 was found to be 0.5 nM.
